Measured values taken from patent EP0061056A1, “5,6-Dimethylpyrrolo (2,3-b) pyridines, process for their preparation and their use as medicaments” (Troponwerke GmbH & Co. KG, priority 1981, dated 1982).
Where two headings read alike, the source gives them in different places.

Tested on: Kaolinödem der Rattenpfote
Test: Kaolin-induced rat paw oedema (inhibition of inflammation)
Assay type: in vivo, Ratte
Conditions: kaolin oedema of the rat paw
Description: Die tierexperimentelle Prüfung der erfindungsgemäßen Verbindungen ergab, daß ein Teil dieser Substanzen sedative und antikonvulsive Eigenschaften besitzt. Darüber hinaus führen sie auch zu einer Hemmung der Entzündung, gemessen an der Beeinflussen des Pfotenödems der Ratte nach Kaolininjektion.
Bei oraler Applikation zeigen die erfindungsgemäßen Verbindungen eine signifikante entzündungshemmende Wirkung am Kaolinödem der Rattenpfote nach Gaben von 25 mg/kg. Bei intramuskulärer Applikation zeigen die Verbindungen bereits bei Dosierung von 10 mg/kg eine deutliche Hemmung der Entzündung. Für die Verbindung des Beispiels 1 beträgt die DE 50 bei oraler Applikation 68 mg/kg und die DE50 bei intramuskulärer Applikation 0,9 mg/kg.

SMILES: Cc1c(C)n(-c2ccccc2)c2nccc(N)c12 [Beispiel 1, 4-Amino-5,6-dimethyl-7-phenyl-pyrrolo[2,3-b]-7-pyridin]
- ED50 (im, intramuscular application, read-out: DE50 (the source's name)): 0.9 mg/kg
- ED50 (oral application, read-out: DE 50 (the source's name)): 68 mg/kg
